Results taken from patent USRE48461E1, “Modulation of androgen receptor expression” (Ionis Pharmaceuticals, Inc., priority 2012, dated 2021).

Assays:
[1] = tested on: AR mRNA; assay: Time-course AR mRNA expression in C4-2B cells (8, 24, 48 hours); type: cell-based, human; conditions: for Percent expression of AR compared to the control group in 8 hours / Percent expression of AR compared to the control group in 48 hours / Percent expression of AR compared to the control group in 24 hours: C4-2B cells
Description: C4-2B cells were plated at 1,000 cells per well in complete medium. […] After a treatment period of 8 hours, 24 hours, and 48 hours, AR expression was measured with primer probe set hAR-LTS00943.

[2] = tested on: AR V7 variant mRNA; assay: AR V7 variant RNA in 22RV1 cells; type: cell-based, human; conditions: RNAiMax, 48 hrs
[3] = tested on: PSA mRNA; assay: PSA expression in 22RV1 cells; type: cell-based, human; conditions: RNAiMax, 48 hrs
Description: Cells were plated at 1,000 cells per well. […] After an incubation period of 48 hrs, RNA levels of full length AR, the V7 variant, PSA and TMPRSS2 were measured.
After an incubation period of 48 hrs, RNA levels of full length AR, the V7 variant, PSA and TMPRSS2 were measured.
Cells were plated at 2,000 cells per well and cultured in CSS media for 16 hours. […] After 4 hrs, 1 nM DHT was added. […] After an incubation period of 48 hrs, RNA levels of AR, AR V7 variant, PSA and TMPRSS2 were measured.

[4] = tested on: MDA-MB-453 tumor; assay: Tumor volume in MDA-MB-453 breast cancer orthotopic model; type: in vivo, NSG mice; conditions: Study 2, MDA-MB-453 model, NSG mice, 50 mg/kg s.c. 5 days per week for 2 weeks
[5] = tested on: AR mRNA; assay: AR RNA expression in LNCaP cells (complete, CSS, CSS+DHT medium); type: cell-based, human; conditions: for Percent expression of AR in LNCaP cells cultured in CSS + DHT medium: CSS + DHT (1 nM) medium; for Percent expression of AR in LNCaP cells cultured in CSS + DHT medium / Percent expression of AR in LNCaP cells cultured in CSS medium: 48 hrs; for Percent expression of AR in LNCaP cells cultured in complete medium: 48 hours
Description: Cells were plated at 1,000 cells per well. […] After an incubation period of 48 hours, RNA levels of AR, PSA and TMPRSS2 were measured.
Cells were plated at 2,000 cells per well and cultured in phenol red-free RPMI supplemented with 5% charcoal stripped serum (Gibco) media for 16 hours. […] After an incubation period of 4 hrs, DHT was added to the medium to a final concentration of 1 nM as indicated. RNAs were collected 48 hrs later and levels of AR, PSA and TMPRSS2 were measured.

[6] = tested on: AR mRNA; assay: AR RNA expression in C4-2B cells (complete, CSS+DHT medium; Example 30); type: cell-based, human; conditions: 48 hrs
Description: Cells were plated at 1,000 cells per well. […] ISIS 549148 was included as a negative control. […] After an incubation period of 48 hrs, RNA levels of AR, PSA and TMPRSS2 were measured.
Cells were plated at 2,000 cells per well and cultured in CSS media with 1 nM DHT. […] ISIS 549148 was included as a negative control. […] After an incubation period of 48 hrs, RNA levels of AR, PSA and TMPRSS2 were measured. In the absence of DHT, AR expression in C4-2 cells was 188%, PSA expression was 43% and TMPRSS2 expression was 27% compared to the untreated control.

[7] = tested on: TMPRSS2 mRNA; assay: TMPRSS2 expression in C4-2 cells; type: cell-based, human; conditions: 48 hrs; for Percent inhibition of TMPRSS2 expression: C4-2 cells, CSS + DHT medium
Description: Cells were plated at 1,000 cells per well. […] After an incubation period of 48 hrs, RNA levels of AR, PSA and TMPRSS2 were measured.
Cells were plated at 2,000 cells per well and cultured in CSS media with 1 nM DHT. […] After an incubation period of 48 hrs, RNA levels of AR, PSA and TMPRSS2 were measured.

For “TGATTTAATGGTTGCA [ISIS 569236] (cEt/MOE gapmer chemistry, further chemistry not given here) [targets intron 1]”, the “Percent expression of AR compared to the control group in 8 hours” value (“Percent expression of AR … in 8 hours” for short) ([1]; 0.04 μM) was 100%, the “Percent expression of AR compared to the control group in 48 hours” value (“Percent expression of AR … in 48 hours” for short) ([1]; 0.04 μM) was 80% and the “Percent expression of AR … in 8 hours” value ([1]; 0.2 μM) was 87%. For the same sequence, the “Percent expression of AR compared to the control group in 24 hours” value (from here on “Percent expression of AR … in 24 hours”) ([1]; 0.2 μM) was 35%, the “Percent expression of AR … in 48 hours” value ([1]; 0.2 μM) was 19% and the “Percent expression of AR … in 8 hours” value ([1]; 1 μM) was 84%. The “Percent expression of AR … in 24 hours” value ([1]; 1 μM) was 15%, the “Percent expression of AR … in 48 hours” value ([1]; 1 μM) was 7% and the “Percent expression of AR … in 8 hours” value ([1]; 5.0 μM) was 58%. The “Percent expression of AR … in 24 hours” value ([1]; 5.0 μM) was 5%, the “Percent expression of AR … in 48 hours” value ([1]; 5.0 μM) was 2% and the AR expression ([1]; C4-2B cells, 8, 24 and 48 hours) was “reduced AR expression in the cells relative to the control set”. For the same sequence, the “Percent inhibition of AR V7 variant” value ([2]; CSS + DHT medium, 1.34 nM) was 54%, the “Percent inhibition of AR V7 variant” value ([2]; CSS + DHT medium, 4.0 nM) was 88% and the “Percent inhibition of AR V7 variant” value ([2]; CSS + DHT medium, 13.4 nM) was 97%. For the same sequence, the “Percent inhibition of AR V7 variant” value ([2]; complete medium, 1.34 nM) was 30%, the “Percent inhibition of AR V7 variant” value ([2]; complete medium, 4.0 nM) was 2% and the “Percent inhibition of AR V7 variant” value ([2]; complete medium, 13.4 nM) was 46%. The “Percent inhibition of AR V7 variant” value ([2]; complete medium, 40 nM) was 81%, the “Percent inhibition of PSA expression” value ([3]; CSS + DHT medium, 1.34 nM) was 28% and the “Percent inhibition of PSA expression” value ([3]; CSS + DHT medium, 4.0 nM) was 49%. For the same sequence, the “Percent inhibition of PSA expression” value ([3]; CSS + DHT medium, 13.4 nM) was 70%, the “Percent inhibition of PSA expression” value ([3]; complete medium, 1.34 nM) was 0% and the “Percent inhibition of PSA expression” value ([3]; complete medium, 4.0 nM) was 17%. The “Percent inhibition of PSA expression” value ([3]; complete medium, 13.4 nM) was 25%, the “Percent inhibition of PSA expression” value ([3]; complete medium, 40 nM) was 7% and the Tumor volumes ([4]; Day 0) was 134. For the same sequence, the Tumor volumes ([4]; Day 8) was 283, the Tumor volumes ([4]; Day 13) was 260 and the Tumor volumes ([4]; Day 20) was 230. It also gave a Tumor volumes ([4]; Day 23) of 264, a Tumor volumes ([4]; Day 27) of 329 and a Tumor volumes ([4]; Day 29) of 323. For the same sequence, the “Percent expression of AR in LNCaP cells cultured in CSS + DHT medium” value (shortened to “Percent expression of AR … in CSS + DHT medium”) ([5]; 0.04 μM) was 104%, the “Percent expression of AR … in CSS + DHT medium” value ([5]; 0.2 μM) was 86% and the “Percent expression of AR … in CSS + DHT medium” value ([5]; 1 μM) was 55%. For the same sequence, the “Percent expression of AR … in CSS + DHT medium” value ([5]; 5.0 μM) was 21%, the “Percent expression of AR in LNCaP cells cultured in CSS medium” value (“Percent expression of AR … in CSS medium” for short) ([5]; 0.04 μM) was 94% and the “Percent expression of AR … in CSS medium” value ([5]; 0.2 μM) was 66%. For the same sequence, the “Percent expression of AR … in CSS medium” value ([5]; 1 μM) was 35%, the “Percent expression of AR … in CSS medium” value ([5]; 5.0 μM) was 13% and the “Percent expression of AR in LNCaP cells cultured in complete medium” value (from here on “Percent expression of AR … in complete medium”) ([5]; 0.04 μM) was 98%. The “Percent expression of AR … in complete medium” value ([5]; 0.2 μM) was 90%, the “Percent expression of AR … in complete medium” value ([5]; 1 μM) was 47% and the “Percent expression of AR … in complete medium” value ([5]; 5.0 μM) was 20%. The “Percent expression of AR” value ([6]; CSS + DHT medium, 0.04 μM) was 67%, the “Percent expression of AR” value ([6]; CSS + DHT medium, 0.2 μM) was 49% and the “Percent expression of AR” value ([6]; CSS + DHT medium, 1 μM) was 24%. For the same sequence, the “Percent expression of AR” value ([6]; CSS + DHT medium, 5.0 μM) was 19%, the “Percent expression of AR” value ([6]; complete medium, 0.04 μM) was 61% and the “Percent expression of AR” value ([6]; complete medium, 0.2 μM) was 23%. For the same sequence, the “Percent expression of AR” value ([6]; complete medium, 1 μM) was 20%, the “Percent expression of AR” value ([6]; complete medium, 5.0 μM) was 16% and the “Percent inhibition of TMPRSS2 expression” value ([7]; 0.04 μM) was 0%. For the same sequence, the “Percent inhibition of TMPRSS2 expression” value ([7]; 0.2 μM) was 11%, the “Percent inhibition of TMPRSS2 expression” value ([7]; 1 μM) was 61% and the “Percent inhibition of TMPRSS2 expression” value ([7]; 5.0 μM) was 67%. The “Percent inhibition of TMPRSS2 expression in C4-2 cells cultured in complete medium” value (shortened to “Percent inhibition … in complete medium”) ([7]; 0.04 μM) was 17%, the “Percent inhibition … in complete medium” value ([7]; 0.2 μM) was 54% and the “Percent inhibition … in complete medium” value ([7]; 1 μM) was 67%. For the same sequence, the “Percent inhibition … in complete medium” value ([7]; 5.0 μM) was 67%.
